# Reference: PubChem BioAssay (NCI)
#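 In this assay, cells in 96-well plates receive the compound at five concentrations for 48 hours. Endpoints are linearly interpolated between the surrounding concentrations. TGI denotes the concentration required for complete inhibition of growth.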
# Key:
# Assay in all cases: DTP human tumour cell line panel, 48 h
# [1] = system: K-562 leukemia
# [2] = system: RXF 393 renal
# [3] = system: KM20L2 colon
# [4] = system: SF-268 CNS
# [5] = system: RPMI-8226 leukemia
# [6] = system: ACHN renal
# [7] = system: SK-MEL-2 melanoma
# [8] = system: OVCAR-8 ovarian
# [9] = system: NCI-H226 lung
# [10] = system: LXFL 529 NSCLC
# [11] = system: A498 renal
# [12] = system: HCT-116 colon
# [13] = system: CCRF-CEM leukemia
# [14] = system: SK-OV-3 ovarian
# [15] = system: HL-60(TB) leukemia
# [16] = system: DMS 114 small cell lung
# [17] = system: SNB-19 CNS
# [18] = system: OVCAR-5 ovarian
# [19] = system: HCC-2998 colon
# [20] = system: DLD-1 colon
# [21] = system: 786-0 renal
# [22] = system: TK-10 renal
# [23] = system: KM12 colon
# [24] = system: HCT-15 colon
# [25] = system: COLO 205 colon
# [26] = system: UO-31 renal
# [27] = system: SN12C renal
# [28] = system: EKVX NSCLC
# [29] = system: SF-295 CNS
# [30] = system: NCI-H23 lung
# [31] = system: XF 498 CNS
# [32] = system: SR leukemia
# [33] = system: IGROV1 ovarian
# [34] = system: HOP-92 NSCLC
# [35] = system: MOLT-4 leukemia
# [36] = system: A549 NSCLC
# [37] = system: SF-539 CNS
# [38] = system: HOP-62 NSCLC
# [39] = system: HOP-18 NSCLC
# [40] = system: HT29 colon
# [41] = system: M14 melanoma
# [42] = system: UACC-62 melanoma
# [43] = system: UACC-257 melanoma
# [44] = system: SNB-78 CNS
# [45] = system: SW-620 colon
# [46] = system: SK-MEL-5 melanoma
# [47] = system: OVCAR-3 ovarian
# [48] = system: DMS 273 small cell lung
# [49] = system: M19-MEL melanoma
# [50] = system: OVCAR-4 ovarian
# [51] = system: NCI-H460 lung
# [52] = system: U251 CNS
# [53] = system: LOX IMVI melanoma
# [54] = system: NCI-H522 lung
# [55] = system: SK-MEL-28 melanoma
# [56] = system: MALME-3M melanoma
# [57] = system: SNB-75 CNS
# [58] = system: CAKI-1 renal
smiles,measurement,setting,value
CCCCc1c2c(nc3c1CCCC3=O)C(=O)CCC2,TGI,[1],> 100 µM
same,TGI,[2],> 100 µM
same,TGI,[3],> 100 µM
same,TGI,[4],> 100 µM
same,TGI,[5],> 100 µM
same,TGI,[6],> 100 µM
same,TGI,[7],> 100 µM
same,TGI,[8],> 100 µM
same,TGI,[9],> 100 µM
same,TGI,[10],> 100 µM
same,TGI,[11],> 100 µM
same,TGI,[12],> 100 µM
same,TGI,[13],> 100 µM
same,TGI,[14],> 100 µM
same,TGI,[15],> 100 µM
same,TGI,[16],> 100 µM
same,TGI,[17],> 100 µM
same,TGI,[18],> 100 µM
same,TGI,[19],> 100 µM
same,TGI,[20],> 100 µM
same,TGI,[21],> 100 µM
same,TGI,[22],> 100 µM
same,TGI,[23],> 100 µM
same,TGI,[24],> 100 µM
same,TGI,[25],> 100 µM
same,TGI,[26],> 100 µM
same,TGI,[27],> 100 µM
same,TGI,[28],> 100 µM
same,TGI,[29],> 100 µM
same,TGI,[30],> 100 µM
same,TGI,[31],> 100 µM
same,TGI,[32],> 100 µM
same,TGI,[33],> 100 µM
same,TGI,[34],> 100 µM
same,TGI,[35],> 100 µM
same,TGI,[36],> 100 µM
same,TGI,[37],> 100 µM
same,TGI,[38],> 100 µM
same,TGI,[39],> 100 µM
same,TGI,[40],> 100 µM
same,TGI,[41],> 100 µM
same,TGI,[42],> 100 µM
same,TGI,[43],> 100 µM
same,TGI,[44],> 100 µM
same,TGI,[45],> 100 µM
same,TGI,[46],> 100 µM
same,TGI,[47],> 100 µM
same,TGI,[48],> 100 µM
same,TGI,[49],> 100 µM
same,TGI,[50],> 100 µM
same,TGI,[51],> 100 µM
same,TGI,[52],> 100 µM
same,TGI,[53],> 100 µM
same,TGI,[54],> 100 µM
same,TGI,[55],> 100 µM
same,TGI,[56],> 100 µM
same,TGI,[57],> 100 µM
COc1nc(NC2OC(COC(C)=O)C(OC(C)=O)C(OC(C)=O)C2OC(C)=O)c2c(OC(C)=O)c(C)c(=O)oc2n1 (stereo not given),TGI,[1],> 100 µM
same,TGI,[2],> 100 µM
same,TGI,[3],> 100 µM
same,TGI,[5],> 100 µM
same,TGI,[6],3.16 µM
same,TGI,[7],> 100 µM
same,TGI,[8],> 100 µM
same,TGI,[9],> 100 µM
same,TGI,[10],> 100 µM
same,TGI,[11],3.18 µM
same,TGI,[12],> 100 µM
same,TGI,[13],> 100 µM
same,TGI,[14],> 100 µM
same,TGI,[15],> 100 µM
same,TGI,[16],> 100 µM
same,TGI,[17],> 100 µM
same,TGI,[18],> 100 µM
same,TGI,[19],> 100 µM
same,TGI,[20],> 100 µM
same,TGI,[21],> 100 µM
same,TGI,[22],> 100 µM
same,TGI,[23],> 100 µM
same,TGI,[24],> 100 µM
same,TGI,[25],> 100 µM
same,TGI,[26],> 100 µM
same,TGI,[58],> 100 µM
same,TGI,[27],> 100 µM
same,TGI,[28],> 100 µM
same,TGI,[29],> 100 µM
same,TGI,[30],> 100 µM
same,TGI,[31],> 100 µM
same,TGI,[33],> 100 µM
same,TGI,[34],> 100 µM
same,TGI,[35],> 100 µM
same,TGI,[36],> 100 µM
same,TGI,[37],> 100 µM
same,TGI,[38],> 100 µM
same,TGI,[39],> 100 µM
same,TGI,[40],> 100 µM
same,TGI,[41],> 100 µM
same,TGI,[42],> 100 µM
same,TGI,[43],> 100 µM
same,TGI,[44],> 100 µM
same,TGI,[45],> 100 µM
same,TGI,[46],> 100 µM
same,TGI,[47],> 100 µM
same,TGI,[49],> 100 µM
same,TGI,[50],> 100 µM
same,TGI,[51],3.15 µM
same,TGI,[52],> 100 µM
same,TGI,[53],> 100 µM
same,TGI,[56],> 100 µM
same,TGI,[57],> 100 µM
CN(C)c1nc(=Nc2ccc3c(c2)OCO3)ss1,TGI,[1],> 100 µM
same,TGI,[2],> 100 µM
same,TGI,[3],> 100 µM
same,TGI,[4],> 100 µM
same,TGI,[5],57.8 µM
same,TGI,[6],> 100 µM
same,TGI,[7],> 100 µM
same,TGI,[8],> 100 µM
same,TGI,[9],> 100 µM
same,TGI,[10],> 100 µM
same,TGI,[11],> 100 µM
same,TGI,[12],> 100 µM
same,TGI,[13],> 100 µM
same,TGI,[14],> 100 µM
same,TGI,[15],60 µM
same,TGI,[16],> 100 µM
same,TGI,[17],> 100 µM
same,TGI,[18],> 100 µM
same,TGI,[19],> 100 µM
same,TGI,[20],> 100 µM
same,TGI,[21],> 100 µM
same,TGI,[22],> 100 µM
same,TGI,[23],> 100 µM
same,TGI,[24],> 100 µM
same,TGI,[26],83.3 µM
same,TGI,[58],> 100 µM
same,TGI,[27],> 100 µM
same,TGI,[28],> 100 µM
same,TGI,[29],> 100 µM
same,TGI,[30],> 100 µM
same,TGI,[31],> 100 µM
same,TGI,[33],> 100 µM
same,TGI,[34],> 100 µM
same,TGI,[35],78.4 µM
same,TGI,[36],> 100 µM
same,TGI,[37],> 100 µM
same,TGI,[38],> 100 µM
same,TGI,[39],> 100 µM
same,TGI,[40],> 100 µM
same,TGI,[41],> 100 µM
same,TGI,[42],> 100 µM
same,TGI,[43],> 100 µM
same,TGI,[44],> 100 µM
same,TGI,[45],> 100 µM
same,TGI,[46],> 100 µM
same,TGI,[48],> 100 µM
same,TGI,[49],> 100 µM
same,TGI,[50],> 100 µM
same,TGI,[51],> 100 µM
same,TGI,[52],> 100 µM
same,TGI,[53],> 100 µM
same,TGI,[54],> 100 µM
same,TGI,[55],> 100 µM
same,TGI,[56],> 100 µM
same,TGI,[57],66 µM
